Data published in US12377067B2, “Methods of treating PAH with combinations of ralinepag and other agents” (Arena Pharmaceuticals, Inc., priority 2016, dated 2025).

Legend:
[1] = system: human PASMCs from PAH patients; test: Cell proliferation assay (MTS), serum-induced growth; assay type: cell-based; settings: for IP receptor dependence of the effect: cyclic AMP and cell proliferation assays in human PASMCs from PAH patients; for inhibition of serum-induced growth (significance) / inhibition at 0.1 µM: drug alone at 100 nM; for inhibition of serum-induced growth (significance): compared to serum and DMSO alone; for inhibition at 0.1 µM: Homo sapiens, PASMC, 96 h, compared to FBS and DMSO, 4 days
Description: Primary cell lines of distal PASMCs from PAH patients were derived from explanted lungs as previously described (Falcetti et al., 2010; Bubb et al., 2014). These cells have an abnormal proliferative capacity when grown in culture (Zhang et al., 2007; Falcetti et al., 2010). Frozen cells were revived and grown in human smooth muscle basal medium-2 (SMBM; Lonza, Slough, UK) supplemented with 9% fetal bovine serum (FBS) at 37° C. in a humidified atmosphere of 5% CO2. After reaching confluence, cells were washed with phosphate-buffered saline (PBS) and treated with trypsin-EDTA for further passage. Only cells between passages 3 and 10 were used for experiments.
Comparative concentration-dependent effects of IP receptor agonists on cell proliferation were assessed on human PASMCs derived from PAH patients. Cells were seeded onto 96-well plates at a density of 1×10^4 cells/ml and grown at 37° C. in a humidified CO2 incubator in human smooth muscle basal medium-2 (SMBM; Lonza) containing 9% FBS and penicillin-streptomycin (Pen/Strep; 50 units/ml). After 24 hours, cells were growth arrested by incubating for 48 hours in fresh media containing no added serum. Media was then subsequently removed, replaced with human SMBM containing 9% serum with or without 0.1% DMSO in the absence and presence of the IP receptor agonist (either ralinepag, iloprost, treprostinil or MRE-269) and cells treated with the IP receptor agonist for 4 days over the concentration range ([…]). Responses were directly compared in cells containing the IP receptor antagonist, RO-1138452 (1 μM), which was added to cells 30-60 minutes prior to the addition of the IP agonist and remained throughout the experiment. Cells incubated with no added serum over the same time period (4 days) acted as the time control.
Cell proliferation was obtained using an MTS proliferation kit (Promega), a colorimetric method for determining the number of viable cells which is based on the cleavage of the tetrazolium salt MTS to formazan by cellular mitochondrial dehydrogenases. An increase in cell number leads to a proportional increase in the amount of formazan dye formed which is quantified by measuring the absorbance of the dye solution at 490 nm. In each case background absorbance was corrected by subtracting the average absorbance from the “no cell” control wells from all other absorbance values.
Cell proliferation was then normalized to the growth response induced by FBS alone, which was taken as the FBS response minus the time control (=100% growth at 4 days). Growth responses induced in presence of solvent±drugs is shown as % change in cell proliferation relative to the FBS response alone in all figures.
All data are presented as mean±standard error of mean (S.E.M) of at least 5 observations. Agonist log-concentration curves were constructed and fitted using the non-linear fitting routine in GraphPad Prism 4 or 6 (San Diego, Calif., USA). The concentration of agonist causing 50% of the maximal response (Emax) was expressed as the negative log (pEC50) and the mean EC50 calculated. P values <0.05 are considered statistically significant.

[2] = system: human PASMCs from PAH patients; test: Cyclic AMP assay; assay type: cell-based; settings: cyclic AMP assay
Description: Human PASMCs from PAH patients were grown to 70-80% confluence in 12 well plates in DMEM/F12 containing 9% foetal bovine serum (FBS), penicillin (50 U/ml)/streptomycin (50 ag/ml). To assess the time-course of cAMP elevation, cells were stimulated with 100 nM ralinepag for varying times (0.5, 1, 2, 4, 8, 24, 48 hours). This dose of ralinepag was chosen on the basis that it was close to the EC50 for cAMP generation in preliminary experiments. In other experiments, the IP receptor agonist was added for a specified time (60 minutes) over a full concentration range (0.1-10,000 nM) in the absence and presence of […] of the IP receptor antagonist, RO-1138452. The antagonist is added 30 minutes beforehand and remained throughout.
To extract cyclic AMP, the medium was aspirated and PASMCs cells incubated in 0.1 M HCl for 20 minutes on ice followed by centrifugation at 1000 g for 10 minutes at 4° C. The protein concentration in the supernatant was determined using a […] protein assay (BCA, Novagen, EmD Chemicals, CA, USA). Intracellular cyclic AMP was measured using a competitive enzyme immunoassay 96 well plate kit (ADI-900-163, Enzo Life Sciences, Exeter, UK) and the assay performed according to the manufacturer's instructions. Each sample was run in duplicate and data expressed as pmol of cAMP per mg of total protein for each individual sample. Basal levels were subtracted from each agonist concentration data point. Given the large variation (˜15-fold) in cAMP generation from different patient samples, data was also normalized to the peak cyclic AMP response (assigned 100%) in each cell isolate.

human IP receptor = human IP receptor (Homo sapiens, UniProt P43119); settings: cited from earlier work
human IP receptor, sequence (P43119 whole entry): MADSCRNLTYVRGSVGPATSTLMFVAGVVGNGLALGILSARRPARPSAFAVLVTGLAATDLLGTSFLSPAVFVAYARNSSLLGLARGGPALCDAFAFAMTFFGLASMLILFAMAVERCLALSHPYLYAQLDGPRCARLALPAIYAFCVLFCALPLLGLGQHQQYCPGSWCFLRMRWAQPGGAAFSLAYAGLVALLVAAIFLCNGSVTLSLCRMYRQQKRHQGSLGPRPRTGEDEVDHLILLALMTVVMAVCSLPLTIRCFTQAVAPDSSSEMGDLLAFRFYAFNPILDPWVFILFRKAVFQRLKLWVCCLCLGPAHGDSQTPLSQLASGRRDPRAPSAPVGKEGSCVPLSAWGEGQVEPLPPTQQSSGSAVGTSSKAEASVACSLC

PDE1 = settings: cited from earlier work

CC(C)N(CCCCOCC(=O)O)c1cnc(-c2ccccc2)c(-c2ccccc2)n1 [MRE-269, [4[(5,6diphenylpyrazinyl)(1methylethyl)amino]butoxy]acetic acid, reference compound]
maximal effect compared with treprostinil ([1]; cell proliferation assay): weaker maximal effects | IP receptor dependence of the effect [1]: selective IP receptor agonists | maximal effect compared with treprostinil [2]: weaker maximal effects | Ki (human IP receptor): 20 nM

COc1ccccc1Oc1c(NS(=O)(=O)c2ccc(C(C)(C)C)cc2)nc(-c2ncccn2)nc1OCCO [bosentan, reference compound]
inhibition of serum-induced growth (significance) [1]: did not cause a significant inhibition

CC#CCC(C)[C@H](O)/C=C/[C@@H]1[C@H]2C/C(=C/CCCC(=O)O)C[C@H]2C[C@H]1O (some centres unmarked) [iloprost, reference compound]
IP receptor dependence of the effect [1]: IP-independent mechanisms

CCCNS(=O)(=O)Nc1ncnc(OCCOc2ncc(Br)cn2)c1-c1ccc(Br)cc1 [macitentan, reference compound]
inhibition at 0.1 µM [1]: ~12%

COC(=O)N(C)c1c(N)nc(-c2nn(Cc3ccccc3F)c3ncccc23)nc1N [riociguat, reference compound]
inhibition at 0.1 µM [1]: ~15%

CC(C)N(CCCCOCC(=O)NS(C)(=O)=O)c1cnc(-c2ccccc2)c(-c2ccccc2)n1 [selexipag, 2-{4-[(5,6-diphenylpyrazin-2-yl)(propan-2-yl)amino]butoxy}-N-(methanesulfonyl)acetamide]
Ki (human IP receptor): 260 nM

CCCc1nn(C)c2c(=O)[nH]c(-c3cc(S(=O)(=O)N4CCN(C)CC4)ccc3OCC)nc12 [sildenafil, reference compound]
inhibition of serum-induced growth (significance) [1]: did not significantly inhibit growth | Ki (PDE1): 40 nM

CCCCC[C@H](O)CC[C@@H]1[C@H]2Cc3cccc(OCC(=O)O)c3C[C@H]2C[C@H]1O [treprostinil, reference compound]
antiproliferative response in the presence of an IP receptor antagonist ([1]; IP receptor antagonist RO-1138452 (1 μM)): only weakly inhibited | IP receptor dependence of the effect [1]: IP-independent mechanisms | inhibition of serum-induced growth (significance) [1]: significantly inhibited growth
